# Laboratory results reported in PMC8040252, “1,2,4-Oxadiazole-Bearing Pyrazoles as Metabolically Stable Modulators of Store-Operated Calcium Entry” (ACS Medicinal Chemistry Letters, 2021).
# Marks after values point to notes of the source that are not given here.
# Experiments:
# [1] = In vitro hepatic metabolic stability in MLS9 fraction with NADPH; assay type: in vitro ADME, mouse; details: after 1 h of incubation
# Method: The five selected inhibitors (22, 27, 29, 32, and 42) and the identified SOCE enhancer (37) were then evaluated for their in vitro hepatic metabolic stability. To this aim, the candidates were incubated in MLS9 fraction supplied with NADPH and the residual substrate was measured after 1 h. Under these conditions, the oxadiazole-bearing pyrazoles resulted overall metabolically stable, with only two compounds affording a residual substrate lower than 80% and the remaining molecules higher than 90% after incubation (Table 1 and Supporting Information). In contrast, Pyr3 and CIC-37, which suffered from hydrolysis of the ester function, provided a residual substrate of 43 and 74%, respectively (Table 1).[35] Similarly, the residual substrate of Synta66 in MLM is of 15%, due to an important hydrolysis of the amide group, absent in our class (Table 1).[39]
# In vitro metabolism and purity of lead compounds
# In vitro metabolism studies
# Mouse liver S9 (MLS9) (pooled male mouse CD-1, protein concentration: 20 mg/mL) were purchased from Corning B.V. Life Sciences (Amsterdam, The Netherlands) and used throughout this study. The standard incubation mixture (250 μL final volume) was carried out in a 50 mM TRIS (tris[hydroxymethyl]-aminomethane) + 150 mM KCl buffer (pH 7.4) containing 3.3 mM MgCl2, 1.3 mM β-NADP-Na 2, 3.3 mM glucose 6-phosphate, 0.4 Units/mL glucose 6-phosphate dehydrogenase (NADPH regenerating system), 5 μL of acetonitrile ([…]), and the substrate compounds at a concentration of 50 µM. After pre-equilibration of the mixture, an appropriate volume of MLS9 suspension was added to give a final protein concentration of 1.5 mg/mL. The mixture was shaken for 60 min at 37 °C. Each incubation was stopped by addition of 250 μL of ice-cold acetonitrile, vortexed, and centrifuged at 13000 rpm for 10 min. Control incubations were carried out without the presence of MLS9 suspension or cofactors or in absence of the substrate.
# LC-UV method for purity and metabolic stability data determination: a Shimadzu HPLC system (Shimadzu, Kyoto, Japan), consisting of two LC-10AD Vp module pumps, an SLC-10A Vp system controller, an SIL-10AD Vp autosampler, and a DGU-14-A on-line degasser were used for the analysis. The SPD-M10Avp photodiode array detector was used to detect the analytes. LC-Solution 1.24 software was used to process the chromatograms.
# • Column: Phenomenex Kinetex XB C18, 150 × 4.6 mm (5 µm d.p.) protected with a SecurityGuard® (Torrance, CA, USA).
# A: 0.2% formic acid in water;
# B: 0.2% formic acid in acetonitrile.
# [2] = tested on: calcium entry in resting cells; experiment: Intracellular Ca2+ in resting cells in the presence of extracellular Ca2+; assay type: cell-based, human; details: 10 μM, extracellular Ca2+ present, 300 s of observation, compared to control
# Method: We also investigated whether 37 required the triggered opening of the Orai channel to elicit its effect. […] The same effect was also evident at 3 (118.2%) and 1 μM (116.7%) but was not detected at concentrations above 10. In particular, at 30 and 100 μM, 37 acts as weak SOCE inhibitor, with a percentage of residual activity of about 70%.
# [3] = tested on: Store-operated calcium entry (SOCE); experiment: SOCE in HEK cells, tBhQ store depletion and Ca2+ re-addition, Fura-2 calcium imaging; assay type: cell-based, human; details: for percentage of SOCE activity: compared to control
# Method: With this approach, 24 oxadiazole-bearing pyrazoles were synthesized and tested in human embryonic kidney (HEK) cells for SOCE inhibition. […] After 600 s, Ca^2+ was added and intracellular levels were measured in fluorescence microscopy with the calcium dye Fura-2. […] For these compounds, the cell viability was therefore evaluated. An MTT assay was performed and the compounds that affected cell viability by more than 25% at 10 μM were discarded (23, 31, and 33). […] According to both activity and cytotoxicity, for the selected five compounds, the representative traces are depicted in Figure 3.
# Human embryonic kidney (Hek) cells were obtained from ATCC (Rockville, MD, USA) and were cultured in Dulbecco’s Modified Eagle’s Medium (DMEM; Sigma-Aldrich, Italy), supplemented with 10% heat-inactivated FBS (Gibco, Italy), L-glutamine […] (Sigma-Aldrich, Italy), 10 U/mL penicillin, and […] streptomycin (Sigma-Aldrich, Italy) at 37 °C, under a 5% CO2 humidified atmosphere. […]
# (KRB, 135 mM NaCl, 5 mM KCl, 0.4 mM KH2PO4, 1 mM MgSO4, 5.5 mM glucose, 20mM HEPES, pH 7.4) containing 2 mM CaCl2 (30 min, room temperature). After which, cells were washed and incubated with KRB for other 30 min to allow de-esterification of […]. To measure SOCE, cells were depleted of calcium in the endoplasmic reticulum with 2,5-t-butylhydroquinone (tBhQ, 50 […]
# For calcium imaging experiments, Hek cells were plated onto pre-treated poli-L-lysine (P4832, Sigma-Aldrich, Italy) glass coverslips of 24 mm in 6-well plates Cells were loaded with 5 µM of Fura-2 AM, 0.02% of Pluronic-127 (Life technologies, Italy) and 10 µM of sulfinpyrazone (Sigma-Aldrich, Italy) in KRB containing 2 mM CaCl2 for 30 min at RT. Cells were then washed once with KRB for 15 min for de-esterification of Fura-2 AM.
# Coverslips were mounted into the acquisition chamber and placed on the stage of a Leica DMI6000 epifluorescent microscope equipped with S Fluor ×40/1.3 objective. Fura-2 AM was excited by alternate 340 and 380 nm using a Polychrome IV monochromator (Till Photonics, Germany), and the probe emission light was filtered through 520/20 bandpass filter and collected by a cooled CCD camera (Hamamatsu, Japan). The fluorescence signals were acquired and processed using MetaFluor software (Molecular Device, Sunnyvale, CA, USA). To quantify the differences in the amplitudes of Ca2+ transients, the ratio values were normalized using the formula ΔF/F0. […]
# In calcium imaging experiments, data are presented as Mean +/- standard error (SEM) or Median and interquartile range (IQR). The normality of data distributions was assessed using the Shapiro−Wilk test. Nonparametric (Mann−Whitney U test and one-way) statistical analysis was used for comparisons of data. All statistical assessments were two-sided and a value of P <0.05 was considered statistically significant. Statistical analyses were performed using GraphPad Prism software (GraphPad Software, Inc., USA).
structure (smiles),measurement,setting,value
CCCCCC(=O)Nc1ccc(-n2ncc(-c3nc(C)no3)c2C(F)(F)F)cc1 [compound 37],MLS9 stability (residual substrate),[1],91% ^b
same,calcium entry in resting cells,[2],did not elicit any significant calcium entry
same,percentage of SOCE activity,[3]; 1 μM,116.7%
same,percentage of SOCE activity,[3]; 3 μM,118.2%
same,area under the curve (AUC) of calcium entry,"[3]; 10 μM, vs control",significantly increased
same,peak amplitude of calcium entry,"[3]; 10 μM, vs control",significantly increased
same,slope of the Ca2+-rise,"[3]; 10 μM, vs control",without affecting
same,activity at 30 µM,"[3]; Homo sapiens, HEK293, 30 μM, read-out: percentage of residual activity (SOCE)",~70%
same,activity at 100 µM,"[3]; Homo sapiens, HEK293, 100 μM, read-out: percentage of residual activity (SOCE)",~70%
same,activity at 10 µM,"[3]; Homo sapiens, HEK293, compound 10 μM, tBhQ 50 μM, vs control, mean ± SEM of three experiments, read-out: % SOCE residual activity (10 μM)",146 ± 4.5%
